Data published in US4356322A, “Phenoxyalkanolamine derivatives” (Veb Arzneimittelwerk Dresden, priority 1977, dated 1982).
Counter-ions that a name gives are not always drawn. Like-named read-outs stand apart in the source and are kept apart here.

How the values were obtained:
[1] = system: circulation of dogs; assay: effects on the circulation of dogs under continual intravenous infusion; format: in vivo, dog; conditions: for ED30: Canis lupus familiaris, iv; for effective period / heart's oxygen demand / peripheral cardiovascular system: in vivo; for contractility, cardiac frequency and cardiac output: increases occur at approximately parallel rates
Text: Column 1: Infusion rate in μg/kg/min
Column 2: Cumulative dose in μg/kg
Rate of pressure increase in the left ventricle (dp/dt/max) in mm Hg·s^-1
ED30 =dosage for 30% increase in inotropy, in μg/kg
Max=maximum increase in percent in inotropy at dose μg/kg
Column 4: Cardiac frequency in n·min^-1
ED30 =dosage for 30% increase in frequency, in μg/kg
Max=maximum increase in percent in frequency at dose μg/kg
Column 5: Cardiac output ml·min^-1 ·kg^-1
Column 6: Diastolic blood pressure in mm Hg
Column 7: Number of animals used in the experiments
X=median values (initial value and after cumulative dose)
%=change in percent of initial value
In these experiments, the compounds were used in the form of hydrochlorides.

[2] = in vivo; conditions: rat, iv
[3] = system: cat; assay: β-mimetic effect on contractility and cardiac frequency in anesthetized cat; format: in vivo; conditions: HCl salt
[4] = system: β-receptor; conditions: M. J. Davey, Arch. Pharmacol. 179 (1973); cited from earlier work
[5] = system: rats; conditions: rat, intravenous, acute; HCl salt
[6] = dog, i.v. infusion, read-out: ED30, dosage for 30% increase in frequency
[7] = dog, i.v. infusion, read-out: ED30, dosage for 30% increase in inotropy
[8] = dog, 12,5 μg/kg/min, cumulative dose --
[9] = dog, at 50 μg/kg, i.v. infusion
[10] = dog, 1,00 μg/kg/min, cumulative 30,0 μg/kg
[11] = dog, 0,25 μg/kg/min, cumulative 15,0 μg/kg
[12] = dog, at 15 μg/kg, i.v. infusion
[13] = dog, 1,00 μg/kg/min, cumulative 10,0 μg/kg
[14] = dog, at 30 μg/kg, i.v. infusion
[15] = dog, 1,00 μg/kg/min, cumulative 20,0 μg/kg
[16] = dog, 0,125 μg/kg/min, cumulative dose --
[17] = dog, at 0,1875 (μg/kg), i.v. infusion
[18] = dog, 10,0 μg/kg/min, cumulative 200 μg/kg

CC(CCc1ccc(O)cc1)NCCc1ccc(O)c(O)c1 (stereo not drawn) [Dobutamine, reference compound]
ED30 [1, 6]: 23 µg/kg
ED30 [1, 7]: 7.5 µg/kg
frequency and cardiovascular dilation ([1]; at higher dosages): strong increases in frequency and in cardiovascular dilation
Cardiac frequency, change in percent of initial value [1, 8]: +8%
Cardiac frequency, median initial value - value after dose [1, 8]: 78-84 n.min^-1
Cardiac output, change in percent of initial value [1, 8]: +23%
Cardiac output, median initial value - value after dose [1, 8]: 152 to 186 mL/min/kg
Diastolic blood pressure, change in percent of initial value [1, 8]: +3%
Diastolic blood pressure, median initial value - value after dose [1, 8]: 101-103 mm Hg
dp/dt max, change in percent of initial value [1, 8]: +75%
dp/dt max, median initial value - value after dose [1, 8]: 3088-5410 mm Hg.s^-1
Max, maximum increase in percent in frequency [1, 9]: +56%
Max, maximum increase in percent in inotropy [1, 9]: +191%
effective period ([1]; dog): equal to the rather brief effective period of isoprenaline
inotropy ([1]; in words): strong rise in inotropy

OC(CNCCNc1ccccc1Cl)COc1ccccc1 (stereo not drawn) [Example 1, 3-[β-(2-chlorophenylamino)-ethyl]-amino-2-hydroxy-1-phenoxypropane]
LD50 [2]: 21000 µg/kg
ED30 [1, 6]: 20 µg/kg
ED30 [1, 7]: 11 µg/kg
Cardiac frequency, change in percent of initial value [1, 10]: +34%
Cardiac frequency, median initial value - value after cumulative dose [1, 10]: 80-107 n.min^-1
Cardiac output, change in percent of initial value [1, 10]: +69%
Cardiac output, median initial value - value after cumulative dose [1, 10]: 115 to 195 mL/min/kg
Diastolic blood pressure, change in percent of initial value [1, 10]: +2%
Diastolic blood pressure, median initial value - value after cumulative dose [1, 10]: 111-113 mm Hg
dp/dt max, change in percent of initial value [1, 10]: +76%
dp/dt max, median initial value - value after cumulative dose [1, 10]: 3028-5326 mm Hg.s^-1
Max, maximum increase in percent in inotropy [1, 9]: +91%
Max, maximum increase in percent in frequency ([1]; dog, at 60 μg/kg, i.v. infusion): +37%
HR, percent change from initial value in heart frequency ([3]; D 0.01 mg/kg i.v.): +11%
dp/dt max, percent change from initial value, left ventricle ([3]; D 0.01 mg/kg i.v.): +59%

Cc1cccc(C)c1NCCNCC(O)COc1ccccc1 (stereo not drawn) [Example 7, 3-[β-(2,6-dimethylphenylamino)-ethyl]-amino-2-hydroxy-1-phenoxypropane hydrochloride]
LD50 [2]: 32000 µg/kg
ED30 [1, 6]: 15 µg/kg
ED30 [1, 7]: 5 µg/kg
Cardiac frequency, change in percent of initial value [1, 11]: +30%
Cardiac frequency, median initial value - value after cumulative dose [1, 11]: 72-93 n.min^-1
Cardiac output, change in percent of initial value [1, 11]: +35%
Cardiac output, median initial value - value after cumulative dose [1, 11]: 138 to 185 mL/min/kg
Diastolic blood pressure, change in percent of initial value [1, 11]: -3%
dp/dt max, change in percent of initial value [1, 11]: +72%
dp/dt max, median initial value - value after cumulative dose [1, 11]: 3834-6590 mm Hg.s^-1
Max, maximum increase in percent in frequency [1, 12]: +30%
Max, maximum increase in percent in inotropy [1, 12]: +72%
HR, percent change from initial value in heart frequency ([3]; D 0.01 mg/kg i.v.): +14%
dp/dt max, percent change from initial value, left ventricle ([3]; D 0.01 mg/kg i.v.): +104%

O=[N+]([O-])c1cccc(NCCNCC(O)COc2ccccc2)c1 (stereo not drawn) [Example 16, 3-[β-(3-nitrophenylamino)-ethyl]-amino-2-hydroxy-1-phenoxypropane]
LD50 [2]: 44000 µg/kg
ED30 [1, 6]: 20 µg/kg
ED30 [1, 7]: 5 µg/kg
Cardiac frequency, change in percent of initial value [1, 13]: +13%
Cardiac frequency, median initial value - value after cumulative dose [1, 13]: 83-94 n.min^-1
Cardiac output, change in percent of initial value [1, 13]: +32%
Cardiac output, median initial value - value after cumulative dose [1, 13]: 129 to 169 mL/min/kg
dp/dt max, change in percent of initial value [1, 13]: +71%
dp/dt max, median initial value - value after cumulative dose [1, 13]: 3068-5230 mm Hg.s^-1
Max, maximum increase in percent in frequency [1, 14]: +39%
Max, maximum increase in percent in inotropy [1, 14]: +100%
HR, percent change from initial value in heart frequency ([3]; D 0.01 mg/kg i.v.): +13%
dp/dt max, percent change from initial value, left ventricle ([3]; D 0.01 mg/kg i.v.): +57%

Nc1cccc(NCCNCC(O)COc2ccccc2)c1 (stereo not drawn) [Example 17, 3-[β-(3-aminophenylamino)-ethyl]-amino-2-hydroxy-1-phenoxypropane trihydrochloride]
LD50 [2]: 66000 µg/kg
ED30 [1, 6]: 16 µg/kg
ED30 [1, 7]: 5.5 µg/kg
Cardiac frequency, change in percent of initial value [1, 15]: +33%
Cardiac frequency, median initial value - value after cumulative dose [1, 15]: 85-113 n.min^-1
Cardiac output, change in percent of initial value [1, 15]: +44%
Cardiac output, median initial value - value after cumulative dose [1, 15]: 138 to 198 mL/min/kg
Diastolic blood pressure, change in percent of initial value [1, 15]: +1%
Diastolic blood pressure, median initial value - value after cumulative dose [1, 15]: 103-104 mm Hg
dp/dt max, change in percent of initial value [1, 15]: +84%
dp/dt max, median initial value - value after cumulative dose [1, 15]: 3071-5663 mm Hg.s^-1
Max, maximum increase in percent in inotropy ([1]; dog, at 40 μg/kg, i.v. infusion): +93%
Max, maximum increase in percent in frequency [1, 9]: +49%
HR, percent change from initial value in heart frequency ([3]; D 0.01 mg/kg i.v.): +19%
dp/dt max, percent change from initial value, left ventricle ([3]; D 0.01 mg/kg i.v.): +84%

CC(C)NCC(O)c1ccc(O)c(O)c1 (stereo not drawn) [Isoprenaline-Sulphate, reference compound]
ED30 [1, 6]: 0.06 µg/kg
Cardiac frequency, change in percent of initial value [1, 16]: +51%
Cardiac frequency, median initial value - value after dose [1, 16]: 76-115 n.min^-1
Cardiac output, change in percent of initial value [1, 16]: +94%
Cardiac output, median initial value - value after dose [1, 16]: 130 to 253 mL/min/kg
Diastolic blood pressure, change in percent of initial value [1, 16]: -3%
dp/dt max, change in percent of initial value [1, 16]: +64%
dp/dt max, median initial value - value after dose [1, 16]: 3136-5140 mm Hg.s^-1
Max, maximum increase in percent in frequency [1, 17]: +75%
Max, maximum increase in percent in inotropy [1, 17]: +116%
effective period ([1]; dog): rather brief
heart's oxygen demand ([1]; dog): excessive rise in the heart's oxygen demand
peripheral cardiovascular system ([1]; dog): a dilation of the peripheral cardiovascular system
contractility, cardiac frequency and cardiac output [1]: increases in contractility, cardiac frequency and cardiac output

CC(C)NCC(O)COc1cccc2ccccc12 (stereo not drawn) [Propranolol, reference compound]
HR, percent change from initial value in heart frequency ([3]; D 0.10 mg/kg i.v.): -8%
dp/dt max, percent change from initial value, left ventricle ([3]; D 0.10 mg/kg i.v.): -8%

Cc1ccccc1OCC(O)CNCCOc1ccc(C(N)=O)cc1 (stereo not drawn) [Tolamolol, 1-[2-(4-carbamoylphenoxy)-ethylamino]-3-(2-methylphenoxy)-propan-2-ol, reference compound]
LD50 [2]: 133000 µg/kg
intrinsic sympathicomimetic activity [4]: does not exhibit an "intrinsic sympathicomimetic activity"
β-blocking efficacy compared with propranolol [4]: about equal to that of propranolol
β-receptor blocking selectivity [4]: cardioselective β-receptor blocking agent
HR, percent change from initial value in heart frequency ([3]; D 0.10 mg/kg i.v.): -10%
dp/dt max, percent change from initial value, left ventricle ([3]; D 0.10 mg/kg i.v.): -17%

COc1cccc(C(=O)CCN[C@@H](C)[C@H](O)c2ccccc2)c1.Cl [d-l-Oxyphedrine Hydrochloride, reference compound]
Cardiac frequency, change in percent of initial value [1, 18]: +56%
Cardiac frequency, median initial value - value after cumulative dose [1, 18]: 75-117 n.min^-1
Cardiac output, change in percent of initial value [1, 18]: +65%
Cardiac output, median initial value - value after cumulative dose [1, 18]: 112 to 186 mL/min/kg
Diastolic blood pressure, change in percent of initial value [1, 18]: -13%
dp/dt max, change in percent of initial value [1, 18]: +50%
dp/dt max, median initial value - value after cumulative dose [1, 18]: 3072-4600 mm Hg.s^-1
Max, maximum increase in percent in inotropy ([1]; dog, at 500 μg/kg, i.v. infusion): +89%
Max, maximum increase in percent in frequency ([1]; dog, at 600 μg/kg, i.v. infusion): +104%
ED30, dosage for 30% increase in frequency ([1]; dog, i.v. infusion): 130 µg/kg
ED30, dosage for 30% increase in inotropy ([1]; dog, i.v. infusion): 130 µg/kg
heart's oxygen demand ([1]; dog): excessive rise in the heart's oxygen demand
peripheral cardiovascular system ([1]; dog): a dilation of the peripheral cardiovascular system
contractility, cardiac frequency and cardiac output [1]: increases in contractility, cardiac frequency and cardiac output
HR, percent change from initial value in heart frequency ([3]; D 0.50 mg/kg i.v.): +2%
dp/dt max, percent change from initial value, left ventricle ([3]; D 0.50 mg/kg i.v.): +38%
LD50 [5]: 26000 µg/kg
